Key:
[1] = system: mice injected i.c.v. with Aβ25-35 peptide; assay: Spontaneous alternation, Y-maze test, after i.c.v. Aβ25-35; assay type: in vivo; conditions: Acamprosate 32 μg/kg/day, Baclofen 480 μg/kg/day
Source text: The Y-maze is made of grey polyvinylchloride. Each arm is 40 cm long, 13 cm high, 3 cm wide at the bottom, 10 cm wide at the top, and converging at an equal angle. […] An alternation is defined as entries into all three arms on consecutive occasions.

[2] = system: rat primary cortical cells; assay: Toxicity of human Aβ1-42 peptide on primary cortical neuron cells: LDH release; assay type: cell-based; conditions: for protection of neurons from amyloid injury: 1 h pre-treatment, Estradiol 150 nM or BDNF 50 ng/mL
Procedure: Rat cortical neurons were cultured as described by Singer et al. (47). Briefly pregnant female rats of 15 days gestation were killed by cervical dislocation (Rats Wistar) and the foetuses were removed from the uterus. The cortex was removed and placed in ice-cold medium of Leibovitz (L15) containing 2% of Penicillin 10.000 U/ml and Streptomycin 10 mg/ml and 1% of bovine serum albumin (BSA). Cortexes were dissociated by trypsin for 20 min at 37° C. (0.05%). The reaction was stopped by the addition of Dulbecco's modified Eagle's medium (DMEM) containing DNasel grade II and 10% of foetal calf serum (FCS). Cells were then mechanically dissociated by 3 serial passages through a 10 ml pipette and centrifuged at 515×g for 10 min at +4° C. The supernatant was discarded and the pellet of cells was re-suspended in a defined culture medium consisting of Neurobasal supplemented with B27 (2%), L-glutamine (0.2 mM), 2% of PS solution and 10 ng/ml of BDNF. Viable cells were counted in a Neubauer cytometer using the trypan blue exclusion test. The cells were seeded at a density of 30 000 cells/well in 96 well-plates (wells were pre-coated with poly-L-lysine (10 μg/ml)) and were cultured at +37° C. in a humidified air (95%)/CO2 (5%) atmosphere.
Briefly, Aβ1-42 peptide was reconstituted in define culture medium at 40 μM (mother solution) and was slowly shaken at +37° C. for 3 days in dark. The control medium was prepared in the same conditions.
After 10 days of neuron culture, test compounds were solved in culture medium (+0.1% DMSO) and then pre-incubated with neurons for 1 hour before the Aβ1-42 application (in a final volume per culture well of 100 μl). One hour after test compound(s) incubation, 100 μl of Aβ1-42 peptide was added to a final concentration of 10 μM diluted in presence of drug(s), in order to avoid further test compound(s) dilutions. Cortical neurons were intoxicated for 24 hours. Three separate cultures were performed per condition, 6 wells per condition.
BDNF (50 ng/ml) and Estradiol-β (150 nM) were used as positive control and reference compounds respectively. Three separate cultures will be performed per condition, 12 wells per condition.
Estradiol-β at 150 nM was used as a positive control (FIG. 4).
Estradiol-β was solved in culture medium and pre-incubated for 1 h before the amyloid-β1-42 application.
The following conditions were assessed: • CONTROL PLAQUE: 12 wells/condition • Negative Control: medium alone+0.1% DMSO • Intoxication: amyloid-β1-42 (10 μM) for 24 h • Reference compound: Estradiol (150 nM) 1 hr. • DRUG PLATE: 6 wells/condition • Negative Control: medium alone+0.1% DMSO • Intoxication: amyloid-β1-42 (10 μM) for 24 h • Test compound(s): test compound(s)—1 hr followed by amyloid-β1-42 (10 μM) for 24 h Lactate Dehydrogenase (LDH) Activity Assay
24 hours after intoxication, the supernatant was taken off and analyzed with Cytotoxicity Detection Kit (LDH, Roche Applied Science, ref: 11644793001, batch: 11800300). This colorimetric assay for the quantification of cell toxicity is based on the measurement of lactate dehydrogenase (LDH) activity released from the cytosol of dying cells into the supernatant.
Data were expressed in percentage of control conditions (no intoxication, no amyloid=100%) in order to express the amyloid injury. All values were expressed as mean+/−SEM (s.e.mean) of the 3 cultures (n=6 wells per condition). Statistic analyses were done on the different conditions (ONE-WAY ANOVA followed by the Dunnett's test when it was allowed, Statview software version 5.0).

COc1cc2c(cc1OC)C(=O)C(CC1CCN(Cc3ccccc3)CC1)C2 (centres unmarked) [Donepezil]
protection of percentage of alternation (Y-maze), low doses with Donepezil ([1]; Donepezil 0.25 mg/kg/day): 32%
effect on percentage of alternation (Y-maze), low doses (in words) ([1]; drugs alone: Donepezil 0.25 mg/kg/day): no significant effect

C[C@]12CC[C@@H]3c4ccc(O)cc4CC[C@H]3[C@@H]1CC[C@@H]2O [Estradiol]
protection of neurons from amyloid injury [2]: −94%

NCCCS(=O)(=O)O [Homotaurine]
prevention of Aβ1-42 intoxication by pre-treatment ([2]; 8 nM): 99%

B1: BDNF: BDNF (50 ng/ml) used as positive control for neuroprotection (protein, UniProt P23560 19-247, looked up)
Neurotrophic factor BDNF …: APMKEANIRGQGGLAYPGVRTHGTLESVNGPKAGSRGLTSLADTFEHVIEELLDEDQKVRPNEENNKDADLYTSRVMLSSQVPLEPPLLFLLEEYKNYLDAANMSMRVRRHSDPARRGELSVCDSISEWVTAADKKTAVDMSGGTVTVLEKVPVSKGQLKQYFYETKCNPMGYTKEGCRGIDKRHWNSQCRTTQSYVRALTMDSKKRIGWRFIRIDTSCVCTLTIKRGR
protection of neurons from amyloid injury [2]: −94%

— US8741886B2, “Baclofen and acamprosate based therapy of neurological disorders” (Pharnext, priority 2011, dated 2014)
